US20070203066A1, “Compositions and methods for inhibiting cellular proliferation” (priority 2005, published 2007)
pIC50: −log10 of the molar value. Where two headings read alike, the source gives them in different places. Non-standard residues stand in square brackets, D forms with d. Primed or numbered codes have the meaning given here. No end group written: not given here. Ida(3) = iminodiacetic acid linker, Lys side-chain amines bound to its two carboxyl groups; Ida(4) = iminodiacetic acid linker (dimerization linker bound to lysine side chain); Cha = N[C@@H](CC1CCCCC1)C(=O)O

System: HUVECs
Type: cell-based
Method in brief: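 HUVECs seeded at 5,000 cells/well in EBM with 2% FCS, adhered ≥12 hours, then stimulated with bFGF 10 ng/ml or VEGF 5 ng/ml plus varying peptide concentrations. After 48 hours at 37 ° C, 5% CO2, proliferation inhibition read by BrdU incorporation.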

[1] = HUVEC proliferation, bFGF at 10 ng/ml or VEGF at 5 ng/ml, 48 hours, BrdU incorporation, read-out: IC50 on HUVECs

| Molecule | pIC50 (48 h) | pIC50 [1] |
| --- | --- | --- |
| CC[C@@H](C)[C@@H](NC(=O)[C@@H](NC(=O)[C@H](C)NC(=O)[C@@H](NC(=O)[C@H](CCCNC(=N)N)NC(=O)[C@H](CCC(N)=O)NC(=O)[C@H](CCCNC(=N)N)NC(=O)[C@H](CCCNC(=N)N)NC(=O)[C@H](CCCNC(=N)N)NC(=O)[C@H](CCCNC(=N)N)NC(=O)[C@H](C)NC(C)=O)C(C)C)[C@@H](C)CC)C(=O)N[C@@H](Cc1ccccc1)C(=O)N[C@@H](CCCCNC(=O)CN(CC(=O)NCCCC[C@H](NC(=O)[C@H](Cc1ccccc1)NC(=O)[C@H](NC(=O)[C@@H](NC(=O)[C@H](C)NC(=O)[C@@H](NC(=O)[C@H](CCCNC(=N)N)NC(=O)[C@H](CCC(N)=O)NC(=O)[C@H](CCCNC(=N)N)NC(=O)[C@H](CCCNC(=N)N)NC(=O)[C@H](CCCNC(=N)N)NC(=O)[C@H](CCCNC(=N)N)NC(=O)[C@H](C)NC(C)=O)C(C)C)[C@@H](C)CC)[C@H](C)CC)C(N)=O)C(=O)CCNC(=O)OC(C)(C)C)C(N)=O [Peptide 254] | > 5.00 | – |
| 185 (Ac-RHRRRQRVRIIF; also: homodimer via C-terminal Lys linker) [compound 185] | – | > 5.00 |
| 439 (Ac-RRRRPQAVAIYFK(Ida(4)); not fully specified (C-terminus); also: homodimer via Ida linker at K13) [compound 439] | – | > 5.00 |
| 199 (Ac-RARRAQRVRIIF; also: dimer: C-terminal Phe bound to an amino group of a Lys linker, 2 chains per Lys) [compound 199] | – | > 5.00 |
| 173 (Ac-ARRRRQRVRIIF; also: homodimer: C-terminal Phe12 of each chain bound to one amino group of a Lys linker) [compound 173] | – | > 5.00 |
| 474 (Ac-PRRRMQAVAIYFK(Ida(3)); not fully specified (C-terminus); also: homodimer via Ida linker on Lys13 side chain) [compound 474] | – | 4.52 to 5.00 |
| 453 (Ac-QRRRRQAVAIVFK-NH2; not fully specified (residue 13); also: homodimer via Ida linker at K13) [compound 453] | – | > 5.00 |
| 229 (XHRRRQRVRIIF; Xaa = Acylated Histidine; Dimeric peptide wherein the C terminus of Phe in position 12 of one peptide chain is covalently bound to one of the amino groups of a Lysine linker and Phe of the remaining peptide chain is covalently bound to the other amino group of the Lysine linker.) [compound 229] | – | > 5.00 |
| CC[C@H](C)[C@H](NC(=O)[C@H](C)NC(=O)[C@@H](NC(=O)[C@H](C)NC(=O)[C@H](CCC(N)=O)NC(=O)[C@H](CCCNC(=N)N)NC(=O)[C@H](CCCNC(=N)N)NC(=O)[C@H](CCCNC(=N)N)NC(=O)[C@H](CCCNC(=N)N)NC(=O)[C@H](CCCNC(=N)N)NC(C)=O)C(C)C)C(=O)N[C@@H](Cc1c[nH]cn1)C(=O)N[C@@H](Cc1ccccc1)C(=O)N[C@@H](CCCCNC(=O)CN(CC(=O)NCCCC[C@H](NC(=O)[C@H](Cc1ccccc1)NC(=O)[C@H](Cc1c[nH]cn1)NC(=O)[C@@H](NC(=O)[C@H](C)NC(=O)[C@@H](NC(=O)[C@H](C)NC(=O)[C@H](CCC(N)=O)NC(=O)[C@H](CCCNC(=N)N)NC(=O)[C@H](CCCNC(=N)N)NC(=O)[C@H](CCCNC(=N)N)NC(=O)[C@H](CCCNC(=N)N)NC(=O)[C@H](CCCNC(=N)N)NC(C)=O)C(C)C)[C@@H](C)CC)C(N)=O)C(=O)CCNC(=O)OC(C)(C)C)C(N)=O [Peptide 250] | > 5.00 | – |
| 265 (Ac-RRRRRQAVAIGFK; not fully specified (C-terminus); also: homodimer: side chain of Lys13 bound to an Ida linker) [compound 265] | – | > 5.00 |
| AAKRKRKKQRVKIAYEEIFVQNM [compound 72] | – | 4.52 to 5.00 |
| 196 (Ac-ARRRRQRVAIIF; also: dimer: C-terminal Phe bound to an amino group of a Lys linker, 2 chains per Lys) [compound 196] | – | > 5.00 |
| 430 (Ac-ARRRRQAVAIK(Ida(4))YF; also: homodimer via Ida linker at K11) [compound 430] | – | > 5.00 |
| KTKRKRKKQRVKIAYEEI [compound 17] | – | 4.52 to 5.00 |
| CC[C@H](C)[C@H](NC(=O)[C@H](Cc1c[nH]cn1)NC(=O)[C@@H](NC(=O)[C@H](Cc1c[nH]cn1)NC(=O)[C@H](CCC(N)=O)NC(=O)[C@H](CCCNC(=N)N)NC(=O)[C@H](CCCNC(=N)N)NC(=O)[C@H](CCCNC(=N)N)NC(=O)[C@H](CCCNC(=N)N)NC(=O)[C@H](Cc1c[nH]cn1)NC(C)=O)C(C)C)C(=O)N[C@@H](Cc1ccc(O)cc1)C(=O)N[C@@H](Cc1ccccc1)C(=O)N[C@@H](CCCCNC(=O)CN(CC(=O)NCCCC[C@H](NC(=O)[C@H](Cc1ccccc1)NC(=O)[C@H](Cc1ccc(O)cc1)NC(=O)[C@@H](NC(=O)[C@H](Cc1c[nH]cn1)NC(=O)[C@@H](NC(=O)[C@H](Cc1c[nH]cn1)NC(=O)[C@H](CCC(N)=O)NC(=O)[C@H](CCCNC(=N)N)NC(=O)[C@H](CCCNC(=N)N)NC(=O)[C@H](CCCNC(=N)N)NC(=O)[C@H](CCCNC(=N)N)NC(=O)[C@H](Cc1c[nH]cn1)NC(C)=O)C(C)C)[C@@H](C)CC)C(N)=O)C(=O)CCNC(=O)OC(C)(C)C)C(N)=O [Peptide 322] | > 5.00 | – |
| 285 (Ac-RRRRHQAVHIYFK-NH2; not fully specified (residue 13); also: homodimer via Ida linker on Lys13 side chain) [compound 285] | – | > 5.00 |
| KRKKQRVKIAYEEIFVQNM [compound 22] | – | < 4.52 |
| 334 (Ac-ARRRRQRVAIYFK; not fully specified (residue 13, C-terminus); also: homodimer via Ida linker on Lys13 side chain, acetate salt) [compound 334] | – | > 5.00 |
| TKRKRKKQQRVKIAYEEIFV [compound 74] | – | < 4.52 |
| 51 (Ac-KTKRKRKKQRVKIAYEEIFVQNMK; also: homodimer via Ida linker on Lys24 side chain) [compound 51] | – | > 5.00 |

| Molecule | pIC50 (48 h) | pIC50 [1] |
| --- | --- | --- |
| 201 (Ac-RARRRQRVAIIF; also: dimer: C-terminal Phe bound to an amino group of a Lys linker, 2 chains per Lys) [compound 201] | – | > 5.00 |
| 441 (Ac-RRRRTQAVAIYFK(Ida(4)); not fully specified (C-terminus); also: homodimer via Ida linker at K13) [compound 441] | – | > 5.00 |
| 386 (Ac-ARRRRQNVAIYFK-NH2; not fully specified (residue 13); also: homodimer via Ida linker on Lys13 side chain, Ida amine Boc) [compound 386] | – | > 5.00 |
| 257 (Ac-ARRRRQR[dV]AIIFK; not fully specified (C-terminus); also: homodimer: side chain of Lys13 bound to an Ida linker) [compound 257] | – | > 5.00 |
| 219 (Ac-RRARRQAVAIIF; also: dimer: Phe C-termini joined via Lys linker) [compound 219] | – | > 5.00 |
| 362 (Ac-ARRRRQRVA[Cha]YFK-NH2; not fully specified (residue 13); also: homodimer: Lys13 side chains joined by Ida (iminodiacetic acid) linker) [compound 362] | – | > 5.00 |
| 369 (Ac-ARRRRQRVAQYFK-NH2; not fully specified (residue 13); also: homodimer via Ida linker on Lys13 side chain, Boc on Ida amine) [compound 369] | – | < 4.52 |
| 328 (XRHRRQHVRIYFK; not fully specified; Xaa = Acylated Histidine; The side chain of Lysine at position 13 is covalently bound to an Ida linker forming a homodimer of residues 1 through 13.) [compound 328] | – | > 5.00 |
| 220 (Ac-RRRARQAVAIIF; also: dimer: Phe C-termini joined via Lys linker) [compound 220] | – | > 5.00 |
| KTKRKRKKQRVKRAYEEIF [compound 136] | – | < 4.52 |
| 462 (Ac-ARRRRK(Ida(3))AVAIYF; also: homodimer via Ida linker on Lys side chains, linker at 6 via Ida, other end not in the chain) [compound 462] | – | 4.52 to 5.00 |
| KKQRVKIAYEEIFVQNM [compound 24] | – | < 4.52 |
| 192 (Ac-ARARRQRVRIIF; also: dimer: C-terminal Phe bound to an amino group of a Lys linker, 2 chains per Lys) [compound 192] | – | > 5.00 |
| 394 (Ac-ARRRRQAVSIYFK; not fully specified (residue 13, C-terminus); also: homodimer of residues 1-13 via Ida linker at Lys13 side chain) [compound 394] | – | > 5.00 |
| 477 (Ac-PRRRSQAVAIYFK(Ida(3)); not fully specified (C-terminus); also: homodimer via Ida linker on Lys13 side chain) [compound 477] | – | 4.52 to 5.00 |
| 335 (Ac-RHRRHQHVRIYFK; not fully specified (residue 13, C-terminus); also: homodimer via Ida linker on Lys13 side chain) [compound 335] | – | > 5.00 |
| KTKRKRKKQRVKI [compound 38] | – | < 4.52 |
| 223 (Ac-ARRRRQRVAIGFK; also: homodimer via Ida linker on side chain of Lys13) [compound 223] | – | < 4.52 |
| 435 (Ac-RRRRGQAVAIYFK(Ida(4)); not fully specified (C-terminus); also: homodimer via Ida linker at K13) [compound 435] | – | > 5.00 |
